Assay results from ChEMBL document CHEMBL1201862, “PubChem BioAssay data set” (2004).
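Five concentrations, 48 hours, 96-well plates. GI50 is the concentration that inhibits growth by half.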 The source made the active and inactive calls. Rule as the data show it: active = GI50 up to about 1.1 µM and inactive = higher.

Key:
Test in all cases: NCI anticancer screen, dose series, 48 h
A498 = system: A498
HT-29 = system: HT-29
OVCAR-5 = system: OVCAR-5
PC-3 = system: PC-3
SK-MEL-28 = system: SK-MEL-28
OVCAR-8 = system: OVCAR-8
CAKI-1 = system: CAKI-1
MDA-MB-435 = system: MDA-MB-435
OVCAR-3 = system: OVCAR-3
UACC-257 = system: UACC-257
NCI-H460 = system: NCI-H460
BT-549 = system: BT-549
HCT-116 = system: HCT-116
IGROV-1 = system: IGROV-1
EKVX = system: EKVX
NCI-H23 = system: NCI-H23
U-251 = system: U-251
SN12C = system: SN12C
CCRF-CEM = system: CCRF-CEM
SK-OV-3 = system: SK-OV-3

| Structure (SMILES) | GI50 (A498) | GI50 (HT-29) | GI50 (OVCAR-5) | GI50 (PC-3) | GI50 (SK-MEL-28) | GI50 (OVCAR-8) | GI50 (CAKI-1) | GI50 (MDA-MB-435) | GI50 (OVCAR-3) | GI50 (UACC-257) | GI50 (NCI-H460) | GI50 (BT-549) | GI50 (HCT-116) | GI50 (IGROV-1) | GI50 (EKVX) | GI50 (NCI-H23) | GI50 (U-251) | GI50 (SN12C) | GI50 (CCRF-CEM) | GI50 (SK-OV-3) |
| --- | --- | --- | --- | --- | --- | --- | --- | --- | --- | --- | --- | --- | --- | --- | --- | --- | --- | --- | --- | --- |
| O=[As](O)(O)c1ccc(NCc2ccccc2)cc1 | > 100 µM (inactive) | > 100 µM (inactive) | > 100 µM (inactive) | > 100 µM (inactive) | > 100 µM (inactive) | > 100 µM (inactive) | > 100 µM (inactive) | > 100 µM (inactive) | > 100 µM (inactive) | > 100 µM (inactive) | > 100 µM (inactive) | > 100 µM (inactive) | > 100 µM (inactive) | > 100 µM (inactive) | > 100 µM (inactive) | 92.9 µM (inactive) | > 100 µM (inactive) | > 100 µM (inactive) |  |  |
| NC(=O)C(N)Cc1ccc(O)cn1 (centres undefined) | > 100 µM (inactive) | > 100 µM (inactive) | > 100 µM (inactive) | > 100 µM (inactive) | > 100 µM (inactive) | > 100 µM (inactive) | > 100 µM (inactive) | > 100 µM (inactive) | > 100 µM (inactive) | > 100 µM (inactive) | > 100 µM (inactive) | > 100 µM (inactive) | > 100 µM (inactive) | > 100 µM (inactive) | > 100 µM (inactive) | > 100 µM (inactive) | > 100 µM (inactive) | > 100 µM (inactive) | > 100 µM (inactive) |  |
| CC(C)(C)c1cc(COc2cc(COc3ccc(-c4c5c(nc6c4CCc4ccc(-c7c8ccccc8nc8ccccc78)cc4-6)-c4cc(-c6c7ccccc7nc7ccccc67)ccc4CC5)cc3)cc(OCc3cc(C(C)(C)C)cc(C(C)(C)C)c3)c2)cc(C(C)(C)C)c1 | > 100 µM (inactive) |  | > 100 µM (inactive) | > 100 µM (inactive) | > 100 µM (inactive) |  | > 100 µM (inactive) | > 100 µM (inactive) | > 100 µM (inactive) | > 100 µM (inactive) | > 100 µM (inactive) | > 100 µM (inactive) | > 100 µM (inactive) |  | > 100 µM (inactive) | > 100 µM (inactive) | > 100 µM (inactive) | > 100 µM (inactive) |  | > 100 µM (inactive) |
| Cc1ccc(/N=N/C(=NNC(=O)c2ccc(C)cc2)c2ccc(N(C)C)cc2)cc1 |  | 31.1 µM (inactive) | 51.8 µM (inactive) | 42.6 µM (inactive) | 36 µM (inactive) | 31.8 µM (inactive) | 23 µM (inactive) | 16.6 µM (inactive) | 17.6 µM (inactive) | 21.9 µM (inactive) | 25.3 µM (inactive) | 26.2 µM (inactive) | 24.2 µM (inactive) | 29.3 µM (inactive) | 30.1 µM (inactive) | 24.3 µM (inactive) | 34.4 µM (inactive) | 23.2 µM (inactive) |  | 23.7 µM (inactive) |
| CC(NC(=O)C(CC(=O)OCc1ccccc1)NC(=O)OCc1ccccc1)c1ccccc1 (centres undefined) |  | > 100 µM (inactive) | > 100 µM (inactive) | 35.3 µM (inactive) | 90.2 µM (inactive) | > 100 µM (inactive) | 83.4 µM (inactive) | > 100 µM (inactive) | > 100 µM (inactive) | > 10 µM (inactive) | > 100 µM (inactive) | > 100 µM (inactive) |  | > 100 µM (inactive) | > 100 µM (inactive) | > 100 µM (inactive) | > 100 µM (inactive) | > 100 µM (inactive) |  | 83.2 µM (inactive) |
| [N-]=[N+]=NC1=C(C(=O)c2ccccc2)C(=O)c2cccc3cccc1c23 |  | 51.2 µM (inactive) | > 100 µM (inactive) | 49.2 µM (inactive) | 66.7 µM (inactive) | 37 µM (inactive) | 40.6 µM (inactive) | 51.5 µM (inactive) | 30.5 µM (inactive) | 48.8 µM (inactive) |  | 44.8 µM (inactive) | 72.1 µM (inactive) | 10.1 µM (inactive) | 19.1 µM (inactive) | 51.3 µM (inactive) | 21.2 µM (inactive) | 63 µM (inactive) | 21.4 µM (inactive) | 26.6 µM (inactive) |
| CC1(C)C=C(/C=N/Nc2ccc([N+](=O)[O-])cc2)C(C#N)=C(O)C1(C#N)C#N |  | > 100 µM (inactive) | > 100 µM (inactive) | > 100 µM (inactive) | > 100 µM (inactive) | > 100 µM (inactive) | > 100 µM (inactive) | > 100 µM (inactive) | > 100 µM (inactive) | > 100 µM (inactive) | > 100 µM (inactive) | > 100 µM (inactive) | > 100 µM (inactive) | > 100 µM (inactive) | > 100 µM (inactive) | > 100 µM (inactive) | > 100 µM (inactive) | > 100 µM (inactive) | > 100 µM (inactive) | > 100 µM (inactive) |
| Cc1c(CCCl)c(=O)n2c([nH]c3ccccc32)c1C#N |  | 1.6 µM (inactive) | 2.33 µM (inactive) | 1.45 µM (inactive) | 1.87 µM (inactive) | 1.6 µM (inactive) | 1.46 µM (inactive) | 1.83 µM (inactive) | 1.73 µM (inactive) | 2.73 µM (inactive) | 1.72 µM (inactive) | 1.91 µM (inactive) | 0.614 µM (active) | 1.77 µM (inactive) | 1.84 µM (inactive) | 1.53 µM (inactive) | 1.79 µM (inactive) | 1.36 µM (inactive) | 0.402 µM (active) | 2.1 µM (inactive) |
| COc1ccc(/C=N/n2c(C)n[nH]c2=O)cc1 | > 100 µM (inactive) | > 100 µM (inactive) | > 100 µM (inactive) | > 100 µM (inactive) | > 100 µM (inactive) | > 100 µM (inactive) | > 100 µM (inactive) | > 100 µM (inactive) | 54.3 µM (inactive) | > 100 µM (inactive) | > 100 µM (inactive) | > 100 µM (inactive) | > 100 µM (inactive) |  | 85.7 µM (inactive) | > 100 µM (inactive) | > 100 µM (inactive) | > 100 µM (inactive) | > 100 µM (inactive) | > 100 µM (inactive) |
| O=C(Cc1nc2ccc(C(=O)c3ccccc3)cc2nc1O)C(=O)Nc1ccc(Br)cc1 | > 100 µM (inactive) | > 100 µM (inactive) | > 100 µM (inactive) | 88.1 µM (inactive) | > 100 µM (inactive) | 96.2 µM (inactive) | 40.1 µM (inactive) | 44.4 µM (inactive) | > 100 µM (inactive) | > 100 µM (inactive) | > 100 µM (inactive) | > 100 µM (inactive) | 75.3 µM (inactive) | > 100 µM (inactive) | > 100 µM (inactive) | > 100 µM (inactive) | > 100 µM (inactive) | > 100 µM (inactive) |  | > 100 µM (inactive) |
| Cc1cc2nc3c(N)nn(CCCN(C)C)c3nc2cc1C | > 100 µM (inactive) | 38.3 µM (inactive) | > 100 µM (inactive) | > 100 µM (inactive) | > 100 µM (inactive) | 83 µM (inactive) | > 100 µM (inactive) | 90.8 µM (inactive) | > 100 µM (inactive) | 97.5 µM (inactive) | 80.5 µM (inactive) | > 100 µM (inactive) | 50.5 µM (inactive) |  | > 100 µM (inactive) | > 100 µM (inactive) | 71.9 µM (inactive) | > 100 µM (inactive) |  | > 100 µM (inactive) |
| CN(C)/C=N/CCN1CCOCC1 | > 100 µM (inactive) | > 100 µM (inactive) | > 100 µM (inactive) | > 100 µM (inactive) | 57.3 µM (inactive) | > 100 µM (inactive) |  | > 100 µM (inactive) | > 100 µM (inactive) | > 100 µM (inactive) |  | > 100 µM (inactive) | > 100 µM (inactive) | > 100 µM (inactive) | > 100 µM (inactive) | > 100 µM (inactive) | > 100 µM (inactive) | > 100 µM (inactive) | > 100 µM (inactive) | > 100 µM (inactive) |
| Nc1ccn([C@H]2CO[C@@H](CO)O2)c(=O)n1 |  | 15 µM (inactive) | 27.9 µM (inactive) | 1.39 µM (inactive) | 15.7 µM (inactive) | 1.51 µM (inactive) | 0.222 µM (active) | 20.8 µM (inactive) | > 71.6 µM (inactive) | 97.7 µM (inactive) | 1.58 µM (inactive) | 32.7 µM (inactive) | 1.39 µM (inactive) | 74 µM (inactive) | > 55.8 µM (inactive) | 15.1 µM (inactive) | 10.5 µM (inactive) | 1.95 µM (inactive) | 0.238 µM (active) | 3.77 µM (inactive) |
| O=C1c2c(O)cccc2Cc2cc(CO)cc(O)c21 | 4.22 µM (inactive) | 3.48 µM (inactive) | 4.02 µM (inactive) | 1.08 µM (active) | 3.96 µM (inactive) | 2.74 µM (inactive) |  | 2.67 µM (inactive) | 1.66 µM (inactive) | 2.14 µM (inactive) | 0.619 µM (active) | 2.01 µM (inactive) | 2.31 µM (inactive) | 4.03 µM (inactive) | 3.03 µM (inactive) | 1.85 µM (inactive) | 1.34 µM (inactive) | 3.38 µM (inactive) | 3.28 µM (inactive) | 3.19 µM (inactive) |
| Clc1ccc2c(NCCNC3CCCCC3)ccnc2c1 | 2.11 µM (inactive) | 3.15 µM (inactive) | 14.9 µM (inactive) | 12.9 µM (inactive) | 1.86 µM (inactive) | 10.7 µM (inactive) | 5.41 µM (inactive) | 3.04 µM (inactive) | 15 µM (inactive) |  |  | 10.5 µM (inactive) | 5.96 µM (inactive) | 11.8 µM (inactive) | 3.31 µM (inactive) | 15.7 µM (inactive) | 5.5 µM (inactive) | 16.2 µM (inactive) | 2.81 µM (inactive) | 13.9 µM (inactive) |
